Read-outs that look alike come from different tables or passages of the source.
What was measured:
[1] = biological target: human TYK2 (JH2domain-pseudokinase) (Homo sapiens (Human), UniProt P29597); assay: TYK2 JH2 Domain Binding Assay (KINOMEscan)
Procedure, shortened: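 Competition binding of an NFkB-DBD fusion of human TYK2 JH2 (G556–D888), expressed in HEK293 and used as crude extract at <0.1 nM, against immobilized ligand beads; 1 h at room temperature in PBS/Tween/DTT/BSA buffer, 0.9% DMSO.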

[2] = biological target: Tyk2 kinase domain (DH1) (Homo sapiens (Human), UniProt P29597); assay: Tyk2 Radioactive Kinase Assay; type: biochemical; conditions: for inhibition at 10 µM: read-out: Tyk2 JH1% Inhibition @ 10 μM
Sequence of Tyk2 kinase domain (DH1) (P29597 897-1176): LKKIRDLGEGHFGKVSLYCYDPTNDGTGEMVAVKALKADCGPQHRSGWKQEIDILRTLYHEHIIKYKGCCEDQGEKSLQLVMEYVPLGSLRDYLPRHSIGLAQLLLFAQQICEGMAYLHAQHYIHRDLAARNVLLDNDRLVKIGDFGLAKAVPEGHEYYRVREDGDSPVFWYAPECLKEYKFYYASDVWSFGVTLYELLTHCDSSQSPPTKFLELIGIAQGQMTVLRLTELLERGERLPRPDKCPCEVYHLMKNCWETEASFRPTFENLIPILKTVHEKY
Procedure, shortened: (§1)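 Read-out is percent inhibition from a radioactive kinase reaction, measured with compound at 10 μM.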

[3] = biological target: JAK2 kinase domain (JH1) (Homo sapiens (Human), UniProt O60674); assay: JAK2 Radioactive Kinase Assay; type: biochemical; conditions: for inhibition at 10 µM: read-out: JAK2 JH1% Inhibition @ 10 μM
Sequence of JAK2 kinase domain (JH1) (O60674 849-1124): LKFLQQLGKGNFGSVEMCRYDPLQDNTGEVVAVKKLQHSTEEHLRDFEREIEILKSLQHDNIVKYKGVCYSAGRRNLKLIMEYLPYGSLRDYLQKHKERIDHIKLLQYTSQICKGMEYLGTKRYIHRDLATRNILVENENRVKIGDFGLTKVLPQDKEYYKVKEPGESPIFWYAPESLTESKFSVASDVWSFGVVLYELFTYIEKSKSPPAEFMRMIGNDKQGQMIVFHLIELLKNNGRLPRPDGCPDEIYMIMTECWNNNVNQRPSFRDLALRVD
Procedure, shortened: as §1

Sequence of human TYK2 (JH2domain-pseudokinase) (P29597 556-888): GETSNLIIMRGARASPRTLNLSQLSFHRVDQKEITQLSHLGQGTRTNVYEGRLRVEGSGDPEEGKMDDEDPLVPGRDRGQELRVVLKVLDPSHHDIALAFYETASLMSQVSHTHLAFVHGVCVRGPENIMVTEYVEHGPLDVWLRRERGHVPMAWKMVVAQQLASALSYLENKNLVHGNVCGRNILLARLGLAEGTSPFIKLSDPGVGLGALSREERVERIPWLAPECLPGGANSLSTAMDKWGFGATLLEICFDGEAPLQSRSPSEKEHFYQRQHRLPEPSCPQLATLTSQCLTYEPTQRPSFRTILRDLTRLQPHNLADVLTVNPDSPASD

SMILES	Kd [1] [nM]	inhibition at 10 µM ([2]; 10 μM compound, 10 μM ATP) [%]	inhibition at 10 µM ([3]; 10 μM compound, 10 μM ATP) [%]	inhibition at 10 µM ([2]; compound at 10 μM, ATP 10 μM) [%]	inhibition at 10 µM ([3]; compound at 10 μM, ATP 10 μM) [%]	Tyk2 JH1% Inhibition @ 10 μM ([2]; compound at 10 μM, ATP 10 μM)	JAK2 JH1% Inhibition @ 10 μM ([3]; compound at 10 μM, ATP 10 μM)
CNc1cc(Nc2cccn([C@@H]3CCCC[C@@H]3OC)c2=O)nc2c(C(=O)N[C@@H]3C[C@@H]3F)cnn12 [I-915]	1 to 10	< 50	< 50				
CNc1cc(Nc2cccn([C@@H]3CCCC[C@@H]3OC)c2=O)nc2c(C(=O)NC3CC3)cnn12 [I-989]	> 10	< 50	< 50				
CNc1cc(Nc2cc(F)cn(-c3nn(C)cc3C)c2=O)nc2c(C(=O)NC3CC3)cnn12 [I-431]	> 10			< 50	< 50		
CNc1cc(Nc2cccn([C@@H]3CCCC[C@@H]3OC)c2=O)nc2c(C(=O)NCC(C)(C)CO)cnn12 [I-990]	1 to 10	< 50	< 50				
NC(=O)c1cnn2c(N)cc(Nc3cc(Cl)cnc3OC3CCOC3)nc12 (stereo not drawn) [I-82, 7-amino-5-((5-chloro-2-((tetrahydrofuran-3-yl)oxy)pyridin-3-yl)amino) pyrazolo[1,5-a]pyrimidine-3-carboxamide]	1 to 10			< 50	< 50		
CNc1cc(-c2nn(CCN3CCOCC3)c3ncccc23)nc2c(C(=O)NC3CC3)cnn12 [I-455]	1 to 10			< 50	< 50		
CNc1cc(Nc2c(F)ccn(-c3nccs3)c2=O)nc2c(C(=O)NC3CC3)cnn12 [I-581]	1 to 10			< 50	< 50		
Cc1c(Nc2cccnc2OC(C)C)nc2c(C(=O)NC3CCC3)cnn2c1N [I-208, 7-amino-N-cyclobutyl-5-((2-isopropoxypyridin-3-yl)amino)-6-methyl pyrazolo[1,5-a]pyrimidine-3-carboxamide]	1 to 10			< 50	< 50		
CNc1cc(Nc2cccn([C@H]3CCC[C@H]3OC)c2=O)nc2c(C(=O)N[C@@H]3C[C@@H]3F)cnn12 [I-538]	1 to 10			< 50	< 50		
CNc1cc(Nc2cc(N3CCCC3)nc(C(F)(F)F)c2)nc2c(C(N)=O)cnn12 [I-112]	1 to 10			< 50	< 50		
Cc1cc(Nc2cc(N)n3ncc(C(N)=O)c3n2)cc(N2CC[C@@H](O)C2)n1 [I-56]	> 10			< 50	< 50		
CNc1cc(-c2cn(CCN3CCOCC3)c3ncccc23)nc2c(C(=O)N[C@@H]3CC[C@@H]3O)cnn12 [I-779]	0.2 to 1					A (percent inhibition at 10 μM lower than 50)	A (percent inhibition at 10 μM lower than 50)
COc1ncccc1Nc1cc(NCCCN2CCOCC2)n2ncc(C(=O)NC3CC3)c2n1 [I-376, N-cyclopropyl-5-((2-methoxypyridin-3-yl)amino)-7-((3-morpholinopropyl)amino)pyrazolo[1,5-a]pyrimidine-3-carboxamide]	0.2 to 1			< 50	< 50		
CNc1cc(Nc2cc(Cl)cn(C3CCN(C)CC3)c2=O)nc2c(C(=O)N[C@@H]3CC[C@@H]3O)cnn12 [I-1007]	0.2 to 1	< 50	< 50				
Cc1cc(Nc2cc(N)n3ncc(C(N)=O)c3n2)cc(N2CCCC2=O)n1 [I-55]	> 10			< 50	< 50		
CNc1cc(-c2cn(C(C)C)c3ncccc23)nc2c(C(=O)NC3CC4(COC4)C3)cnn12 [I-629, 5-(1-isopropyl-1H-pyrrolo[2,3-b]pyridin-3-yl)-7-(methylamino)-N-(2-oxaspiro[3.3]heptan-6-yl)pyrazolo[1,5-a]pyrimidine-3-carboxamide]	0.2 to 1			< 50	< 50		
CNc1cc(-c2cn(CCN3CCOCC3)c3ncccc23)nc2c(C(=O)N[C@H]3COC[C@H]3O)cnn12 (stereo in doubt) [I-791, N-(4-hydroxytetrahydrofuran-3-yl)-7-(methylamino)-5-(1-(2-morpholinoethyl)-1H-pyrrolo[2,3-b]pyridin-3-yl)pyrazolo[1,5-a]pyrimidine-3-carboxamide]	0.2 to 1			< 50	< 50		
CNc1cc(Nc2cccn([C@@H]3CCC[C@H](OC)C3)c2=O)nc2c(C(=O)N[C@H]3CC[C@@H]3OC)cnn12 [I-1083]	1 to 10	< 50	< 50				
NC(=O)c1cnn2c(N)cc(Nc3cccn(-c4ccc(F)cc4)c3=O)nc12 [I-25]	0.2 to 1			< 50	< 50		
CNc1cc(Nc2cc(Cl)cn(-c3cnn(C4CC4)c3C)c2=O)nc2c(C(=O)NC3CCC3)cnn12 [I-181]	0.2 to 1			< 50	< 50		
CNc1cc(Nc2cccn([C@H]3CCCOC3)c2=O)nc2c(C(=O)N[C@@H]3CC[C@@H]3O)cnn12 [I-804]	0.2 to 1					A (percent inhibition at 10 μM lower than 50)	A (percent inhibition at 10 μM lower than 50)

Continued, in another order:

Kd [1] [nM]	inhibition at 10 µM ([2]; 10 μM compound, 10 μM ATP) [%]	inhibition at 10 µM ([3]; 10 μM compound, 10 μM ATP) [%]	inhibition at 10 µM ([2]; compound at 10 μM, ATP 10 μM) [%]	inhibition at 10 µM ([3]; compound at 10 μM, ATP 10 μM) [%]	SMILES	Tyk2 JH1% Inhibition @ 10 μM ([2]; compound at 10 μM, ATP 10 μM)	JAK2 JH1% Inhibition @ 10 μM ([3]; compound at 10 μM, ATP 10 μM)
0.2 to 1			< 50	< 50	CNc1cc(Nc2cccn(C3CCN(C)CC3(F)F)c2=O)nc2c(C(=O)NC3CC3)cnn12 (stereo not drawn) [I-761]		
0.2 to 1			< 50	< 50	CNc1cc(Nc2cccnc2C(C)(F)F)nc2c(C(=O)NC3CCC3)cnn12 [I-299]		
0.2 to 1			< 50	< 50	CNc1cc(-c2nn(C3CCOC3)c3ncccc23)nc2c(C(=O)NC3CC3)cnn12 (stereo not drawn) [I-443]		
0.2 to 1			< 50	< 50	CNc1cc(Nc2cccc(N3CCC4(CCCO4)CC3)n2)nc2c(C(=O)NC3CC3)cnn12 [I-655]		
< 0.2			< 50	< 50	[2H]C([2H])([2H])Oc1ncccc1Nc1cc(NC)n2ncc(C(=O)NCCC3(O)CC3)c2n1 [I-470, N-(2-(1-hydroxycyclopropyl)ethyl)-5-((2-(methoxy-d3)pyridin-3-yl)amino)-7-(methylamino)pyrazolo[1,5-a]pyrimidine-3-carboxamide]		
< 0.2			< 50	< 50	CNc1cc(Nc2cccc([C@@H]3CCCCO3)n2)nc2c(C(=O)NCC3(CO)CC3)cnn12 [I-565]		
0.2 to 1	< 50	< 50			CNc1cc(Nc2cccn([C@@H]3CCC[C@@H]3O)c2=O)nc2c(C(=O)N[C@H]3CC[C@@H]3OC)cnn12 [I-1100]		
< 0.2			< 50	< 50	CNc1cc(Nc2cccn(-c3nccs3)c2=O)nc2c(C(=O)NC3CC3)cnn12 [I-157]		
< 0.2			< 50	< 50	CNc1cc(Nc2cccn(-c3cncc(C)c3)c2=O)nc2c(C(=O)N[C@H]3C[C@H]3F)cnn12 [I-302]		
< 0.2			< 50	< 50	CNc1cc(Nc2cc(Cl)cn(C3CCCOC3)c2=O)nc2c(C(=O)N[C@H]3[C@@H]4COC[C@@H]43)cnn12 (stereo partly drawn) [I-741, N-((1R,5S,6r)-3-oxabicyclo[3.1.0]hexan-6-yl)-5-((5-chloro-2-oxo-1-(tetrahydro-2H-pyran-3-yl)-1,2-dihydropyridin-3-yl)amino)-7-(methylamino)pyrazolo[1,5-a]pyrimidine-3-carboxamide]		
< 0.2			< 50	< 50	CNc1cc(Nc2cccn(CCOC)c2=O)nc2c(C(=O)N[C@H]3C[C@H]3F)cnn12 [I-268]		
< 0.2			< 50	< 50	CNc1cc(Nc2cccn([C@H]3CC[C@@H](OC)CC3)c2=O)nc2c(C(=O)NC3CC3)cnn12 [I-356]		
0.2 to 1			< 50	< 50	CNc1cc(Nc2cccc(N3CC4(CCO4)C3)n2)nc2c(C(=O)N[C@H]3CC[C@H]3O)cnn12 [I-758]		

Reference: patent US10508120B2, “TYK2 inhibitors and uses thereof” (Nimbus Lakshmi, Inc., priority 2017, dated 2019)
